Source: patent publication EP4707393A1, “DOUBLE-STRANDED SIRNA, CONJUGATE THEREOF AND USE THEREOF” (CMS Research & Development Pte. Ltd., priority 2023, dated 2024)

Columns and labels:
[1] = test system: LPA mRNA; test: In vivo efficacy in LPA-HDI mouse model (liver LPA mRNA); set-up: species or system BALB/c mouse; settings: 3 mg/kg single subcutaneous injection, Day 14, relative to PBS blank group, 4 mice per group
Protocol: The knockdown effect of the test double-stranded siRNA conjugate on the target gene LPA upon entry into the mouse is evaluated by rapid high-pressure injection of the physiological saline containing recombinant plasmid pcDNA-LPA carrying the target gene via the tail vein.
pcDNA-LPA plasmid, BALB/c mouse, PBS (phosphate buffer), and conjugates of the present invention.
Six-week-old female BALB/c mice were ordered and acclimated/quarantined for three days upon arrival in the animal room.
On Day 0, the mice were randomly grouped based on body weight data. After grouping, all mice were given a single administration via subcutaneous injection, with a dose volume of 10 mL/kg. Mice in Group 1 received PBS; mice in the other groups received the conjugates (dissolved in PBS).
On Day 13 post-administration, all mice were injected with normal saline containing the pcDNA-LPA plasmid via the tail vein within 5 seconds. The injection volume (mL) = mouse body weight (g) × 8%. The amount of plasmid injected per mouse was 10 µg.
On Day 14 post-administration, all groups of mice were euthanized by CO2 inhalation, and 2 liver samples were collected from each mouse. Liver samples were treated overnight with RNAlater at 4 °C, then RNAlater was removed, and stored at -80 °C for detection of LPA gene expression levels.

[2] = test system: human LPA gene (Genbank number: NM_005577.4); test: Inhibitory activity against LPA mRNA, psiCHECK-2 dual-luciferase reporter vector in Huh7 cells; assay type: cell-based; settings: Huh7 cells transfected with LPA_psiCHECK-2 plasmid, RNAiMAX transfection
How it was run: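 Huh7 cells transfected with psiCHECK-2 carrying human LPA, then treated next day with compounds (3 concentrations) delivered by RNAiMAX. Dual-Glo readout of firefly and Renilla luciferase per well. Percent inhibition calculated from the reporter ratio relative to the RNAiMAX control.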

[3] = test system: hPBMCs; test: Immunogenicity test in hPBMCs (IL-6 and TNF-α ELISA of supernatant); assay type: cell-based, human; settings: donor 1 hPBMCs, 18-20 h
Protocol: 1 Experimental material • 1.1 Double-stranded siRNA conjugates • 1.2 hPBMCs, purchased from Shanghai Sailybio Medical Co., LTD. • 1.3 Main reagents: Penicillin-Streptomycin (Cat. No.: 15140122), RNase-free water (Cat. No.: AM9938), IL-6 ELISA kit (Cat. No.: 555220), TNF-α ELISA kit (Cat. No.: 555212), LPS (Cat. No.: L2630), etc. 2 Experimental method • 2.1 Compound Preparation: Compounds were prepared as stock solutions with enzyme-free water. Compound weight = powder weight * purity. The concentration of prepared solutions was 900 µg/mL, followed by three-fold serial dilution with enzyme-free water. Each concentration was diluted 10-fold with 1640 medium, resulting in a final enzyme-free water content of 5.0%. • 2.2 Experimental procedure: • 2.2.1 PBMC cells were resuscitated one day in advance and incubated overnight in 1640 complete medium. • 2.2.2 On the day of the experiment, PBMC cells were centrifuged at 300 × g for 8 minutes, and the cell density was adjusted to 1.6 × 10^6 mL with 1640 complete medium. The cells were then added to a 96-well plate, 125 µL per well, and incubated in a 37 °C, 5% CO2 incubator for 15 minutes. • 2.2.3 The diluted test compounds were added to the 96-well plate according to the plate map, all in duplicate, 125 µL for each well; the positive control group and the blank group were added with an equal volume of 1640 complete culture medium containing the same amount of enzyme-free water. • 2.2.4 After gently shaking, the well plates were incubated in an incubator at 37 °C for 18-20 h. The supernatant was collected by centrifugation, and secretions of TNF-α and IL-6 were detected by ELISA. • 2.2.5 Data were analyzed using GraphPad Prism 8 software. 3 Experimental results Table 10. IL-6 and TNF-α levels in the cell supernatant of donor 1 hPBMCs treated with different doses of test compounds

| Substance | % Downregulation of LPA mRNA [1] [%] | EC50 [2] [nM] | IL-6 ([3]; 5 µg/mL) [pg/mL] | TNF alpha ([3]; 5 µg/mL) [pg/mL] | IL-6 ([3]; 15 µg/mL) [pg/mL] | TNF alpha ([3]; 15 µg/mL) [pg/mL] | IL-6 ([3]; 45 µg/mL) [pg/mL] | TNF alpha ([3]; 45 µg/mL) [pg/mL] |
| --- | --- | --- | --- | --- | --- | --- | --- | --- |
| Z27: siRNA conjugate: sense SEQ ID NO:43, ligand D18 at 3' end of sense strand, antisense SEQ ID NO:66 (sense CAGCCCCTTATTGTTANACGA; antisense TCTCGTATNACAATAAGGGGCTG; ligand D18 at sense 3' end; listed as RNA; modified_base 1: mod_base = OTHER; note = 2'-O-methylcytidine; modified_base 2: mod_base = OTHER; note = 2'-O-methyladenosine; modified_base 3: mod_base = OTHER; note = 2'-O-methylguanosine; modified_base 4..7: mod_base = OTHER; note = 2'-O-me; note = 2'-O-methyluridine; modified_base 4: mod_base = OTHER; note = 2'-fluorocytidine; modified_base 5: mod_base = OTHER; note = 2'-O-methylg) | 92.2 | 0.96 | – | – | – | – | – | – |
| Z32: siRNA conjugate: sense SEQ ID NO:47, ligand D18 at 3' end of sense strand, antisense SEQ ID NO:71 (sense GCCCCTTATTGTTANACGA; antisense TCGTATNACAATAAGGGGCTGT; ligand D18 at sense 3' end; listed as RNA; modified_base 1: mod_base = OTHER; note = 2'-O-methylguanosine; modified_base 2: mod_base = OTHER; note = 2'-O-methylcytidine; modified_base 3..5: mod_base = OTHER; modified_base 6: mod_base = OTHER; note = 2'-O-met; note = E-type vinylphosphonate-modified 2'-O-methyluridine; note = 2'-fluorocytidine; modified_base 3: mod_base = OTHER; modified_base 4: mo) | 86.4 | 0.21 | – | – | – | – | – | – |
| Z33: siRNA conjugate: sense SEQ ID NO:47, ligand D18 at 3' end of sense strand, antisense SEQ ID NO:72 (sense GCCCCTTATTGTTANACGA; antisense TCGTATNACAATAAGGGGCTGT; ligand D18 at sense 3' end; listed as RNA; modified_base 1: mod_base = OTHER; note = 2'-O-methylguanosine; modified_base 2: mod_base = OTHER; note = 2'-O-methylcytidine; modified_base 3..5: mod_base = OTHER; modified_base 6: mod_base = OTHER; note = 2'-O-met; note = E-type vinylphosphonate-modified 2'-O-methyluridine; note = 2'-fluorocytidine; modified_base 3: mod_base = OTHER; modified_base 4: mo) | 79.2 | – | – | – | – | – | – | – |
| Z34: siRNA conjugate: sense SEQ ID NO:48, ligand D18 at 3' end of sense strand, antisense SEQ ID NO:73 (sense CAGCCCCTTATTGTTANACGA; antisense TCGTATNACAATAAGGGGCNGTT; ligand D18 at sense 3' end; listed as RNA; modified_base 1: mod_base = OTHER; note = 2'-O-methylcytidine; modified_base 2: mod_base = OTHER; note = 2'-O-methyladenosine; modified_base 3: mod_base = OTHER; note = 2'-O-methylguanosine; modified_base 4..6: mod_base = OTHER; note = 2'-O-me; note = E-type vinylphosphonate-modified 2'-O-methyluridine; note = 2'-fluorocytidine; modified_base 4: mo) | 78.1 | 3.05 | – | – | – | – | – | – |
| Z35: siRNA conjugate: sense SEQ ID NO:49, ligand D18 at 3' end of sense strand, antisense SEQ ID NO:74 (sense CAGCCCCTTATTGTTATACGA; antisense TCGTATNACAATAAGGGGCNGTT; ligand D18 at sense 3' end; listed as RNA; modified_base 1: mod_base = OTHER; note = 2'-O-methylcytidine; modified_base 2: mod_base = OTHER; note = 2'-O-methyladenosine; modified_base 3: mod_base = OTHER; note = 2'-O-methylguanosine; modified_base 4..7: mod_base = OTHER; note = 2'-O-me; note = E-type vinylphosphonate-modified 2'-O-methyluridine; note = 2'-deoxycytidine; modified_base 4: mod) | 92.3 | 0.14 | – | – | – | – | – | – |
| Z40: siRNA conjugate: sense SEQ ID NO:52, ligand D01 at 3' end of sense strand, antisense SEQ ID NO:78 (sense CCTGCCAAGCTTGGTCNTCTA; antisense TCTAGATGNCCAAGCTTGGCNGG; ligand D01 at sense 3' end; listed as RNA; modified_base 1..2: mod_base = OTHER; note = 2'-O-methylcytidine; modified_base 3: mod_base = OTHER; note = 2'-O-methyluridine; modified_base 4: mod_base = OTHER; note = 2'-O-methylguanosine; modified_base 5..6: mod_base = OTHER; note = 2'-O-m; modified_base 1: mod_base = OTHER; note = 2'-fluoroadenosine; modified_base 5: mod_base = OTHER; note = 2'-O-methyl) | 59.0 | 0.07 | 1333.8 | 35.9 | 1266.6 | 32.3 | 1343.4 | 32.7 |
| Z43: siRNA conjugate: sense SEQ ID NO:49, ligand D01 at 3' end of sense strand, antisense SEQ ID NO:81 (sense CAGCCCCTTATTGTTATACGA; antisense NCGTATNACAATAAGGGGCNGTT; ligand D01 at sense 3' end; listed as RNA; modified_base 1: mod_base = OTHER; note = 2'-O-methylcytidine; modified_base 2: mod_base = OTHER; note = 2'-O-methyladenosine; modified_base 3: mod_base = OTHER; note = 2'-O-methylguanosine; modified_base 4..7: mod_base = OTHER; note = 2'-O-me; note = n is B30; note = 2'-deoxycytidine; modified_base 4: mod_base = OTHER; note = 2'-O-methyluridine; m) | 84.5 | 0.09 | 1270.9 | 35.4 | 1339.1 | 36.9 | 1314.4 | 32.2 |
